The text below walks through data of patent US20090226398A1, “ANTI-VIRAL COMPOUNDS, COMPOSITIONS, AND METHODS OF USE” (Genelabs Technologies, Inc., priority 2008, published 2009).

Usually EC50 stands for the midpoint of the concentration-response curve.

The test system of the experiment is HCV replication. Description: Replicon Assay (Huh-lucubineo-ET cells, luciferase readout). In kind it is cell-based. Conditions: Hepatitis C virus; ET (Huh-lucubineo-ET) HCV replicon cell line; luciferase activity 48-72 hours after compound addition; 6 dilutions. The method, boiled down: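 Huh-lucubineo-ET cells stably carrying a firefly luciferase-ubiquitin-neo/NS3-5B ET replicon (adaptive mutations E1202G, T1280I, K1846T) were plated 24 h before compound, then treated at 5 or 50 μM or six 3-fold dilutions. Luciferase read 48-72 h later; % inhibition vs no-compound control, EC50/TC50 from Hill-equation fit.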
(In general: Replicon systems follow genome replication, usually without infectious particles.)

`Fc1cccc(-c2nc3cnn(Cc4ccc(-c5ccc(OCC6CCOC6)cc5C(F)(F)F)nn4)cc-3n2)c1F` (centres unmarked) [Compound 326, 2-(2,3-Difluoro-phenyl)-5-{6-[4-(tetrahydro-furan-3-ylmethoxy)-2-trifluoromethyl-phenyl]-pyridazin-3-ylmethyl}-5H-imidazo[4,5-d]pyridazine] displayed an EC50 of 1.68 µM.

`COc1ccc(-c2ccc(Cn3cc4nc(-c5cccc(F)c5F)nc-4cn3)cc2N)c(C(F)(F)F)c1` [Compound 356, 4-[2-(2,3-Difluoro-phenyl)-imidazo[4,5-d]pyridazin-5-ylmethyl]-4′-methoxy-2′-trifluoromethyl-biphenyl-2-ylamine] returned an EC50 of 0.1 µM. With `Fc1cccc(-c2nc3cnn(Cc4ccc(-c5ccc(Br)c(C(F)(F)F)c5)cc4)cc-3n2)c1F` [Compound 344, 5-(4′-Bromo-3′-trifluoromethyl-biphenyl-4-ylmethyl)-2-(2,3-difluoro-phenyl)-5H-imidazo[4,5-d]pyridazine], the EC50 amounted to 0.32 µM. This EC50 lies about 3.2-fold higher than the previous one.

As to `COCc1ccc(-c2ccc(Cn3cc4nc(-c5cccc(F)c5F)nc-4cn3)nn2)cc1` [Compound 213, 2-(2,3-Difluoro-phenyl)-5-[6-(4-methoxymethyl-phenyl)-pyridazin-3-ylmethyl]-5H-imidazo[4,5-d]pyridazine], the EC50 was at least 50 µM. Next, `COc1ccc(-c2ccc(Cn3cc4nc(-c5cccc(F)c5F)nc-4cn3)c(C(=O)O)c2)c(C(F)(F)F)c1` [Compound 342, 4-[2-(2,3-Difluoro-phenyl)-imidazo[4,5-d]pyridazin-5-ylmethyl]-4′-methoxy-2′-trifluoromethyl-biphenyl-3-carboxylic acid]: at least 50 µM. The result for `Fc1cccc(-c2nc3cnn(Cc4ccc(-c5ccsc5)cc4)cc-3n2)c1F` [Compound 272, 2-(2,3-Difluoro-phenyl)-5-(4-thiophen-3-yl-benzyl)-5H-imidazo[4,5-d]pyridazine] reads 18.7 µM; that for `O=[N+]([O-])c1cccc(Cn2cc3nc(-c4cccc(F)c4F)nc-3cn2)c1` [Compound 290, 2-(2,3-Difluoro-phenyl)-5-(3-nitro-benzyl)-5H-imidazo[4,5-d]pyridazine], at least 50 µM; that for `CC(C)COc1ccc(-c2ccc(Cn3cc4nc(-c5cccc(F)c5F)nc-4cn3)nn2)c(C(F)(F)F)c1` [Compound 328, 2-(2,3-Difluoro-phenyl)-5-[6-(4-isobutoxy-2-trifluoromethyl-phenyl)-pyridazin-3-ylmethyl]-5H-imidazo[4,5-d]pyridazine], 0.035 µM. As to `COc1ccc(-c2ccc(Cn3cc4nc(-c5cccc(F)c5F)nc-4cn3)nc2N)c(C(F)(F)F)c1` [Compound 358, 6-[2-(2,3-Difluoro-phenyl)-imidazo[4,5-d]pyridazin-5-ylmethyl]-3-(4-methoxy-2-trifluoromethyl-phenyl)-pyridin-2-ylamine], the EC50 is 0.291 µM.

`Fc1cccc(-c2nc3cnn(Cc4ccc(-c5ccccc5C(F)(F)F)nc4)cc-3n2)c1F` [Compound 250, 2-(2,3-Difluoro-phenyl)-5-[6-(2-trifluoromethyl-phenyl)-pyridin-3-ylmethyl]-5H-imidazo[4,5-d]pyridazine] had an EC50 of at least 50 µM. The result for `Oc1ccc(-c2ccc(Cn3cc4nc(-c5cccc(F)c5F)nc-4cn3)nn2)c(C(F)(F)F)c1` [Compound 350, 4-{6-[2-(2,3-Difluoro-phenyl)-imidazo[4,5-d]pyridazin-5-ylmethyl]-pyridazin-3-yl}-3-trifluoromethyl-phenol] reads at least 50 µM; that for `Fc1cccc(-c2nc3cnn(Cc4ccc(C(F)(F)F)cc4C(F)(F)F)cc-3n2)c1F` [Compound 263, 5-(2,4-Bis-trifluoromethyl-benzyl)-2-(2,3-difluoro-phenyl)-5H-imidazo[4,5-d]pyridazine], at least 50 µM; that for `Fc1cccc(-c2nc3cnn(Cc4ccc(-c5ccc(-c6ccccn6)cc5C(F)(F)F)nn4)cc-3n2)c1F` [Compound 331, 2-(2,3-Difluoro-phenyl)-5-[6-(4-pyridin-2-yl-2-trifluoromethyl-phenyl)-pyridazin-3-ylmethyl]-5H-imidazo[4,5-d]pyridazine], at least 50 µM. The result for `Fc1cccc(-c2nc3cnn(Cc4cccc5ccccc45)cc-3n2)c1F` [Compound 292, 2-(2,3-Difluoro-phenyl)-5-naphthalen-1-ylmethyl-5H-imidazo[4,5-d]pyridazine] reads at least 50 µM.

`COc1ccc(-c2ccc(Cn3cc4nc(-c5cccc(F)c5F)nc-4cn3)nn2)c(OC)c1` [Compound 207, 2-(2,3-Difluoro-phenyl)-5-[6-(2,4-dimethoxy-phenyl)-pyridazin-3-ylmethyl]-5H-imidazo[4,5-d]pyridazine] had an EC50 of at least 50 µM. Next, `Cc1ccc(-c2ccc(Cn3cc4nc(-c5cccc(F)c5F)nc-4cn3)nc2)c(C(F)(F)F)c1` [Compound 239, 2-(2,3-Difluoro-phenyl)-5-[5-(4-methyl-2-trifluoromethyl-phenyl)-pyridin-2-ylmethyl]-5H-imidazo[4,5-d]pyridazine]: 0.063 µM. Next, `Fc1cccc(-c2nc3cnn(Cc4ccc(Oc5ccc(OC(F)(F)F)cc5)nn4)cc-3n2)c1F` [Compound 341, 2-(2,3-Difluoro-phenyl)-5-[6-(4-trifluoromethoxy-phenoxy)-pyridazin-3-ylmethyl]-5H-imidazo[4,5-d]pyridazine]: 6.03 µM; `Cc1nc(-c2ccc(Cn3cc4nc(-c5cccc(F)c5F)nc-4cn3)cc2)cs1` [Compound 268, 2-(2,3-Difluoro-phenyl)-5-[4-(2-methyl-thiazol-4-yl)-benzyl]-5H-imidazo[4,5-d]pyridazine]: at least 50 µM. The compound `COc1cccc(-c2ccc(Cn3cc4nc(-c5cccc(F)c5F)nc-4cn3)nn2)c1` [Compound 218, 2-(2,3-Difluoro-phenyl)-5-[6-(3-methoxy-phenyl)-pyridazin-3-ylmethyl]-5H-imidazo[4,5-d]pyridazine] had an EC50 of at least 50 µM. The result for `Fc1cccc(-c2nc3cnn(Cc4ccc(-c5ccc(OCC6CCOCC6)cc5C(F)(F)F)nn4)cc-3n2)c1F` [Compound 320, 2-(2,3-Difluoro-phenyl)-5-{6-[4-(tetrahydro-pyran-4-ylmethoxy)-2-trifluoromethyl-phenyl]-pyridazin-3-ylmethyl}-5H-imidazo[4,5-d]pyridazine] reads 1.71 µM; that for `CCCOc1ccc(-c2ccc(Cn3cc4nc(-c5cccc(F)c5F)nc-4cn3)cn2)cc1` [Compound 245, 2-(2,3-Difluoro-phenyl)-5-[6-(4-propoxy-phenyl)-pyridin-3-ylmethyl]-5H-imidazo[4,5-d]pyridazine], 8.35 µM. The result for `N#Cc1ccccc1-c1ccc(Cn2cc3nc(-c4cccc(F)c4F)nc-3cn2)cc1` [Compound 264, 4′-[2-(2,3-Difluoro-phenyl)-imidazo[4,5-d]pyridazin-5-ylmethyl]-biphenyl-2-carbonitrile] reads 0.892 µM; that for `Fc1cccc(-c2nc3cnn(Cc4ccc(Br)cn4)cc-3n2)c1F` [Compound 262, 5-(5-bromo-pyridin-2-ylmethyl)-2-(2,3-difluoro-phenyl)-5H-imidazo[4,5-d]pyridazine], at least 50 µM. `[O-][n+]1cc(Cn2cc3nc(-c4cccc(F)c4F)nc-3cn2)ccc1-c1ccc(C(F)(F)F)cc1C(F)(F)F` [Compound 345, 5-[6-(2,4-Bis-trifluoromethyl-phenyl)-1-oxy-pyridin-3-ylmethyl]-2-(2,3-difluoro-phenyl)-5H-imidazo[4,5-d]pyridazine] came in with an EC50 of 0.08 µM. This lies in the double-digit nanomolar range. The result for `CCOC(=O)CCc1ccc(-c2ccc(Cn3cc4nc(-c5cccc(F)c5F)nc-4cn3)nn2)cc1` [Compound 217, 3-(4-{6-[2-(2,3-Difluoro-phenyl)-imidazo[4,5-d]pyridazin-5-ylmethyl]-pyridazin-3-yl}-phenyl)-propionic acid ethyl ester] reads 52 µM; that for `Fc1cccc(-c2nc3cnn(Cc4ccc5ncccc5c4)cc-3n2)c1F` [Compound 302, 6-[2-(2,3-Difluoro-phenyl)-imidazo[4,5-d]pyridazin-5-ylmethyl]-quinoline], at least 50 µM; that for `Fc1cccc(-c2nc3cnn(Cc4ccc(-c5ccc(-c6ccccc6)cc5C(F)(F)F)nn4)cc-3n2)c1F` [Compound 205, 2-(2,3-Difluoro-phenyl)-5-[6-(3-trifluoromethyl-biphenyl-4-yl)-pyridazin-3-ylmethyl]-5H-imidazo[4,5-d]pyridazine], 0.14 µM.

With `COc1ccc(-c2ccc(Cn3cc4nc(-c5cccc(F)c5F)nc-4cn3)c(F)c2)c(C(F)(F)F)c1` [Compound 259, 2-(2,3-Difluoro-phenyl)-5-(3-fluoro-4′-methoxy-2′-trifluoromethyl-biphenyl-4-ylmethyl)-5H-imidazo[4,5-d]pyridazine], the EC50 stood at 0.02 µM. Take `CCCOc1ccc(-c2ccc(Cn3cc4nc(-c5cccc(F)c5F)nc-4cn3)c(N)n2)c(C(F)(F)F)c1` [Compound 232, 3-[2-(2,3-Difluoro-phenyl)-imidazo[4,5-d]pyridazin-5-ylmethyl]-6-(4-propoxy-2-trifluoromethyl-phenyl)-pyridin-2-ylamine]: the midpoint of the response, the EC50, lay at 0.018 µM. The result for `Fc1cccc(-c2nc3cnn(Cc4ccc(-c5ccc(-c6cccs6)cc5C(F)(F)F)nn4)cc-3n2)c1F` [Compound 354, 2-(2,3-Difluoro-phenyl)-5-[6-(4-thiophen-2-yl-2-trifluoromethyl-phenyl)-pyridazin-3-ylmethyl]-5H-imidazo[4,5-d]pyridazine] reads 0.225 µM; that for `Cc1ccc(-c2ccc(C(F)(F)F)cc2C(F)(F)F)c(Cn2cc3nc(-c4cccc(F)c4F)nc-3cn2)n1` [Compound 336, 5-[3-(2,4-Bis-trifluoromethyl-phenyl)-6-methyl-pyridin-2-ylmethyl]-2-(2,3-difluoro-phenyl)-5H-imidazo[4,5-d]pyridazine], at least 50 µM; that for `CC(C)Cc1ccc(-c2ccc(Cn3cc4nc(-c5cccc(F)c5F)nc-4cn3)nn2)cc1` [Compound 208, 2-(2,3-Difluoro-phenyl)-5-[6-(4-isobutyl-phenyl)-pyridazin-3-ylmethyl]-5H-imidazo[4,5-d]pyridazine], at least 50 µM.
